Source: ChEMBL document CHEMBL1201862, “PubChem BioAssay data set” (2004)
Active and inactive are the calls of the source.

Columns and labels:
[1] = Luminescence Cell-Based Dose Response to Identify Activators of 5'UTR Stem-Loop Driven Prion Protein mRNA Translation in H4-C Neuroglioblastoma Cells. [Related pubchem assays: 1829 (Project Summary), 1814 (Primary HTS)]; format: functional
H4 = test: Luminescence Cell-Based Dose Response HTS to Identify Activators of 5'UTR Stem-Loop Driven Prion Protein mRNA Translation in H4 Neuroglioblastoma Cells. [Related pubchem assays: 1829 (Project Summary), 1814 (Primary HTS)]; format: functional; conditions: Homo sapiens
[2] = Luminescence Cell-Based Dose Response to Identify Activators of Luciferase Translation or Activity in H4-C Neuroglioblastoma Cells. [Related pubchem assays: 1829 (Project Summary), 1814 (Primary HTS)]; format: functional
[3] = biological target: Epstein-Barr nuclear antigen 1 (Epstein-Barr virus (strain B95-8) (HHV-4) (Human herpesvirus 4), UniProt P03211); test: EBNA-1 inhibitors, dose response, biochemical, fluorescence polarization, 1536-well (AID 2381); design: species or system human gammaherpesvirus 4;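 note: fluorescence polarization of a Cy5 DNA probe bound by EBNA-1 protein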
[4] = biological target: Lytic switch protein BZLF1 (Epstein-Barr virus (strain B95-8) (HHV-4) (Human herpesvirus 4), UniProt P03206); test: EBV ZTA inhibitors, dose response, counter-screen for EBNA-1 inhibitor project, biochemical, fluorescence polarization, Epstein-Barr virus, 1536-well (AID 2377); design: species or system human gammaherpesvirus 4;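 note: fluorescence polarization of Cy5-labelled ZRE DNA probe bound by purified Zta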
[5] = Luminescence Cell-Based Dose Confirmation to Identify Activators of 5'UTR Stem-Loop Driven Alpha-Synuclein mRNA Translation in H4 Neuroglioblastoma Cells. [Related pubchem assays: 1829 (Project Summary), 1814 (Primary HTS)]; format: functional
[6] = biological target: Neuropeptide Y receptor type 1 (Homo sapiens, UniProt P25929); format: functional;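 note: HEK293 cells with a CNG channel challenged with NPY then isoproterenol; potency as antagonist that reverses NPY suppression of cAMP signal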
[7] = biological target: Neuropeptide Y receptor type 2 (Homo sapiens, UniProt P49146); format: functional, cell-based;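 note: HEK293 cells expressing the receptor and a CNG channel; stimulus was NPY near EC95 followed by isoproterenol to raise cAMP; antagonist potency measured as restoring cAMP signal that NPY suppresses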
[8] = inhibitors of firefly luciferase expression or activity, dose response, H4 neuroglioma cells, luminescence (AID 1990); format: functional, cell-based
[9] = insulin promoter down-regulators in MIN6 cells, imaging, high-content screening, mouse beta cells (AID 1628); format: functional
[10] = system: Streptococcus sp. 'group A'; test: growth inhibition of control SK(-) GAS strain, dose response, counter-screen for streptokinase expression inhibitor project, luminescence, kanamycin, BacTiterGlo, confirmation (AID 1900); format: functional, organism-based
[11] = Luminescence Cell-Based Dose Response HTS to Identify Inhibitors of 5'UTR Stem-Loop Driven Prion Protein mRNA Translation in H4 Neuroglioblastoma Cells. [Related pubchem assays: 1827 (Project Summary), 1813 (Primary HTS)]; format: functional
[12] = cytotoxicity in MIN6 insulinoma cells, dose response, cytotoxicity control, cell-based, mouse insulinoma (AID 2122); format: functional;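 note: confirmatory high-throughput counterscreen run to flag cytotoxic compounds; mouse MIN-6 beta cells carrying an insulin promoter eGFP reporter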
Vero = test: host cell cytotoxicity of antiviral hits, dose response, cytotoxicity control for West Nile virus antiviral project, secondary assay (AID 1650); format: functional; conditions: Chlorocebus sabaeus
[13] = inhibitors of SNCA 5'UTR-driven reporter translation, confirmation, H4 neuroglioma cells, luminescence (AID 1988); format: functional, cell-based
[14] = biological target: Induced myeloid leukemia cell differentiation protein Mcl-1 (Homo sapiens, UniProt Q07820); format: functional
Streptococcus = test: Group A Streptococcus viability loss, dose response, counter-screen for streptokinase expression inhibitor project, luminescence, BacTiterGlo (AID 1915); format: functional, organism-based;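 note: potency for reduction of bacterial viability or growth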
Exodeoxyribonuclease V = biological target: T1, Exodeoxyribonuclease V (Escherichia coli (strain K12), UniProt P04993+P07648+P08394); test: E. coli RecBCD inhibitors, dose response, counter-screen for AddAB inhibitor project, absorbance, V66 E. coli, mutant T4 phage (AID 492957); format: functional, cell-based, Escherichia coli str. K-12 substr. MG1655
T1 sequence (P04993 whole entry): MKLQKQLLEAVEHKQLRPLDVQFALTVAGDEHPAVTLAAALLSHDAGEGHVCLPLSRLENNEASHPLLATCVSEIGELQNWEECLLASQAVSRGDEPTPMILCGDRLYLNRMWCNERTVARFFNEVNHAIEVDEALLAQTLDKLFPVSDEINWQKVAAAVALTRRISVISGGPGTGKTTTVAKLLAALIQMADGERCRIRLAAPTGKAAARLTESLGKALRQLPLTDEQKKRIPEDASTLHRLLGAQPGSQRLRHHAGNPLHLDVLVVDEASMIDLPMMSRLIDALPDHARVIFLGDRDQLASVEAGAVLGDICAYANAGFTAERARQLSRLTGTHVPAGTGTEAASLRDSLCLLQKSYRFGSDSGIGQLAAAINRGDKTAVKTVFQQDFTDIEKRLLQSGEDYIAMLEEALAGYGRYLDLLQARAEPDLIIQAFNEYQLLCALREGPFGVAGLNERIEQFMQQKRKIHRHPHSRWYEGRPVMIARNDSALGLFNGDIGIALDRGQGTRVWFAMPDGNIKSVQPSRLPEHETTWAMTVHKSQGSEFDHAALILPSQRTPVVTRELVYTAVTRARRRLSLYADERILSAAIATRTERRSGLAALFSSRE
T1 sequence (P07648 whole entry): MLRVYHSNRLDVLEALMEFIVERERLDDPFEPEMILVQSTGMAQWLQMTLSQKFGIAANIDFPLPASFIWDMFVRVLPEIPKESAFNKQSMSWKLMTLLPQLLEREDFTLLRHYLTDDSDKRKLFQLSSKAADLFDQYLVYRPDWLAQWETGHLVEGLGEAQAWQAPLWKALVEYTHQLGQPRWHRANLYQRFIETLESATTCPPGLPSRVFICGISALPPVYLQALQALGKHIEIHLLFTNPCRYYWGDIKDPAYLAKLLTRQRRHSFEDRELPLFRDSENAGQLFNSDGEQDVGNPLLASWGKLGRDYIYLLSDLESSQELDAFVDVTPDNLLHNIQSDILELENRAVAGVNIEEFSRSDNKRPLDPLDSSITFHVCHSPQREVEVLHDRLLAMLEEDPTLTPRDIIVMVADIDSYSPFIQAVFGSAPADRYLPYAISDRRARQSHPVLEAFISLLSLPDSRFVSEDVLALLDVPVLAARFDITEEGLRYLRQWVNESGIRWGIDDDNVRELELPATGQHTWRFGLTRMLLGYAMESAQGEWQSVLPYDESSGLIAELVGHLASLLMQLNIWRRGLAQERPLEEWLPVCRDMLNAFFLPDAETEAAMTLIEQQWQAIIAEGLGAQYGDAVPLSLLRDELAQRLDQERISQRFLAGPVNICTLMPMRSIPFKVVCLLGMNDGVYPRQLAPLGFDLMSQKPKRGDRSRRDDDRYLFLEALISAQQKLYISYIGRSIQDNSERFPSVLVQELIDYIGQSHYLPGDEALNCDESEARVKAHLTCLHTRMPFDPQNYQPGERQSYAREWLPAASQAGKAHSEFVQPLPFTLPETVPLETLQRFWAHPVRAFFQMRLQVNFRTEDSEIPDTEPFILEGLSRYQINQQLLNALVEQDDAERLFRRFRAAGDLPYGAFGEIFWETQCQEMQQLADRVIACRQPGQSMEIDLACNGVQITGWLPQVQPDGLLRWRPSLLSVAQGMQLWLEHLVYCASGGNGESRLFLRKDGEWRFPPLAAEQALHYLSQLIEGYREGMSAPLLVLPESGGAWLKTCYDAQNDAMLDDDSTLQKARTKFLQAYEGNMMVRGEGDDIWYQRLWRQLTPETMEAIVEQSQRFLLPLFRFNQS
T1 sequence (P08394 whole entry): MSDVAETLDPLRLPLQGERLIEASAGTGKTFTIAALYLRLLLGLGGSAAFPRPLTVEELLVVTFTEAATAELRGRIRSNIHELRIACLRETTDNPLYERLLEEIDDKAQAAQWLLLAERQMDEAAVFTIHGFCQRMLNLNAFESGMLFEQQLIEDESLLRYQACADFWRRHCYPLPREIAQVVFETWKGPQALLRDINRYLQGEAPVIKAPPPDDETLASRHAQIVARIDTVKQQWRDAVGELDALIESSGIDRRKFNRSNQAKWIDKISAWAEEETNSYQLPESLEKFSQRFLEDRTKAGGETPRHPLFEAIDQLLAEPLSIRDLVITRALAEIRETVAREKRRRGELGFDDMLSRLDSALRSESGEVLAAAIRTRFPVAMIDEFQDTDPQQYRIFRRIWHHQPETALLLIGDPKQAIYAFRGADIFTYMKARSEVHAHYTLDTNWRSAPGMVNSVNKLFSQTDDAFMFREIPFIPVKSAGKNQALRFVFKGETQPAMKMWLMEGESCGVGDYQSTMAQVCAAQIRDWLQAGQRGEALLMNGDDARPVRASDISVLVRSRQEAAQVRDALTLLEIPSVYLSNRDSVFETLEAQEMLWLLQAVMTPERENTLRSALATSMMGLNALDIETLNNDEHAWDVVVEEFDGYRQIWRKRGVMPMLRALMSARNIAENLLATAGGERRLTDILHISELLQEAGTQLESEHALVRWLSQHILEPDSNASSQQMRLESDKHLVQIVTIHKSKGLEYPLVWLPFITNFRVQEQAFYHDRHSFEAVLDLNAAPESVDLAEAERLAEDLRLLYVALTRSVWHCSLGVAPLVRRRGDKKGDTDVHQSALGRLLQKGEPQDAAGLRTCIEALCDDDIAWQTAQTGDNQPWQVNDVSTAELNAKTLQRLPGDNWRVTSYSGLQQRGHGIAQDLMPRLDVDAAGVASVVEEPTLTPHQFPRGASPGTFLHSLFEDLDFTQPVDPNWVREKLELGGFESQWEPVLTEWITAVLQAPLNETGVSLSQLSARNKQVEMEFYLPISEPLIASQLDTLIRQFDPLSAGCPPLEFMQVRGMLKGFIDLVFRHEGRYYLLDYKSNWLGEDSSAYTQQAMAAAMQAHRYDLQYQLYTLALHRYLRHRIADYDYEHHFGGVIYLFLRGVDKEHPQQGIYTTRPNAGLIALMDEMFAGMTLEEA

[15] = Counterscreen for AddAB inhibitors: absorbance-based bacterial cell-based high throughput dose response assay for inhibitors of bacterial viability. [Related pubchem assays (depositor defined):AID435030, AID449728, AID449731, AID488942, AID488955, AID488956]; format: functional
INS1 = test: beta cell apoptosis inhibitors, cytokine rescue, dose response, luminescence, retest (AID 449756); format: functional, cell-based; conditions: Rattus norvegicus;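 note: cell death triggered by IL-1 beta plus TNF-alpha plus IFN-gamma mixture; protective hits raise ATP signal compared with cytokine alone wells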
Ephrin type-A receptor 4 = Ephrin type-A receptor 4 (Mus musculus, UniProt Q03137); test: inhibitors of EphA4 binding to KYL peptide, primary screen, biochemical, colorimetric, mouse EphA4 (AID 689); format: functional
Ephrin type-A receptor 4, sequence (Q03137 whole entry): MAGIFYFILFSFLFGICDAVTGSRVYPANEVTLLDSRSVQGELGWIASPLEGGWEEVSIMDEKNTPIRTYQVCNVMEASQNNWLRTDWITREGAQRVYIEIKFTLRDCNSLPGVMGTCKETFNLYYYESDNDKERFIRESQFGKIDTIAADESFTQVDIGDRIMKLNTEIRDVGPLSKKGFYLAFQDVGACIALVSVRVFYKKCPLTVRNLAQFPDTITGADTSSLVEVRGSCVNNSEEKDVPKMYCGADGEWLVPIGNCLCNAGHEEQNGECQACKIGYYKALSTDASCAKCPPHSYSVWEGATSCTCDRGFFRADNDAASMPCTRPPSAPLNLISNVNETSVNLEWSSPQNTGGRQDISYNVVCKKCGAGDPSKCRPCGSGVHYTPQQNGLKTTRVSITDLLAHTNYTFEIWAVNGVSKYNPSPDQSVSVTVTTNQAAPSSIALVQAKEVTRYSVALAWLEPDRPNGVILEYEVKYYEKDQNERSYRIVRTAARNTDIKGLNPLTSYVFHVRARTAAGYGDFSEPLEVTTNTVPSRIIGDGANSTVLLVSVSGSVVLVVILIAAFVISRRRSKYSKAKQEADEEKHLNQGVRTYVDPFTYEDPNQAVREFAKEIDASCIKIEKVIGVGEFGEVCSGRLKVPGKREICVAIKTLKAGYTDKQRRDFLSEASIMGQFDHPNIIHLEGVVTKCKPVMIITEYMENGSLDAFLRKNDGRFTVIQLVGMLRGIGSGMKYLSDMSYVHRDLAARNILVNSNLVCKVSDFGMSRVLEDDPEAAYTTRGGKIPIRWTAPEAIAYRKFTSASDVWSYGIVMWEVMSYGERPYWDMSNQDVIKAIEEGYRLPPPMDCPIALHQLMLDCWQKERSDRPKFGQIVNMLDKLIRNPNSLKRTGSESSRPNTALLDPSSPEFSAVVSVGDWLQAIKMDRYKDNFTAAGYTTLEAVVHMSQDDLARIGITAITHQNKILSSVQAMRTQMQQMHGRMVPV

Lytic switch protein BZLF1, sequence (P03206 whole entry): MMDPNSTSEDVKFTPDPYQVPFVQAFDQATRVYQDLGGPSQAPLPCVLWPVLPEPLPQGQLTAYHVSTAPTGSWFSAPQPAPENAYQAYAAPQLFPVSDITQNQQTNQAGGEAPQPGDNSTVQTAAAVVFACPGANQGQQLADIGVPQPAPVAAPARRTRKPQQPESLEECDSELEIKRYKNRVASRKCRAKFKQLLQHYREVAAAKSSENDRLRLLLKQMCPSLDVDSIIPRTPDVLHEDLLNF
Neuropeptide Y receptor type 1, sequence (P25929 whole entry): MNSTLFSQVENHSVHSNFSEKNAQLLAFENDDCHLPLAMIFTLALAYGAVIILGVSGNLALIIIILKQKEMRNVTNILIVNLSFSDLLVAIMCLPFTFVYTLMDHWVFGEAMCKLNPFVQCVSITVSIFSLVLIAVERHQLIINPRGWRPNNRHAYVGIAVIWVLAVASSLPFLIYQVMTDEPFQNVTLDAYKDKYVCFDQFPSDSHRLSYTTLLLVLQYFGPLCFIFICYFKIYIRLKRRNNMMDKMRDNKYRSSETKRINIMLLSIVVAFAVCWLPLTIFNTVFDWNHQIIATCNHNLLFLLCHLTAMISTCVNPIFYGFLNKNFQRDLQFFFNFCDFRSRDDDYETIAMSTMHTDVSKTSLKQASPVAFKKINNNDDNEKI
Neuropeptide Y receptor type 2, sequence (P49146 whole entry): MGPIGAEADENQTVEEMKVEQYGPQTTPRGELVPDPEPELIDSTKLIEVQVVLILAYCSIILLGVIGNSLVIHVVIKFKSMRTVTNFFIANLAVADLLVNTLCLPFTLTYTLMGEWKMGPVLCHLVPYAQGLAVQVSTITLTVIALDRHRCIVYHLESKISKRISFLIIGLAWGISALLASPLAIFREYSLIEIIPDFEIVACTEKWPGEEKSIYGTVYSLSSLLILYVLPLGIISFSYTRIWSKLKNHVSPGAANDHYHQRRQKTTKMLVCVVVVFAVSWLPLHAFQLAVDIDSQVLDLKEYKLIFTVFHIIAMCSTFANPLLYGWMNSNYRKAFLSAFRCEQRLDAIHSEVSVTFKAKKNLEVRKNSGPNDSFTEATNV
Epstein-Barr nuclear antigen 1, sequence (P03211 whole entry): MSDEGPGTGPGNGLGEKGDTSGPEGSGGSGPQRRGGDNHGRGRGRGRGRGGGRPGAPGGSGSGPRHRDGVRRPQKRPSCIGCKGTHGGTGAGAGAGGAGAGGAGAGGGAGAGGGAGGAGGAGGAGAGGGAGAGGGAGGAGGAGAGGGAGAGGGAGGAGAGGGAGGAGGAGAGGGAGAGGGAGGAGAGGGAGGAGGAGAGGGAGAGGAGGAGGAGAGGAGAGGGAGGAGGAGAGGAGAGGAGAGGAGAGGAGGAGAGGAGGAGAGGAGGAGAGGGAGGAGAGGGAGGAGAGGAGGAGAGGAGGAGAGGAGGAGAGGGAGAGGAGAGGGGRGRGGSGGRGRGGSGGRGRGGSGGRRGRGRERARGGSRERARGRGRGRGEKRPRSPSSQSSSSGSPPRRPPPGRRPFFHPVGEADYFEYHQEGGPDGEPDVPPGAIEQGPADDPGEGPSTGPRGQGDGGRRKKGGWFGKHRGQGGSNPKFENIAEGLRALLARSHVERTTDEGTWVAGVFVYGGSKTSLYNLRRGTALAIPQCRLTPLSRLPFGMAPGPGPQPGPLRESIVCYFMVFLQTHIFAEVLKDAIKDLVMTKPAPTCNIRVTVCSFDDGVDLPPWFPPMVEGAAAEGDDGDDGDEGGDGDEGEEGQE
Induced myeloid leukemia cell differentiation protein Mcl-1, sequence (Q07820 whole entry): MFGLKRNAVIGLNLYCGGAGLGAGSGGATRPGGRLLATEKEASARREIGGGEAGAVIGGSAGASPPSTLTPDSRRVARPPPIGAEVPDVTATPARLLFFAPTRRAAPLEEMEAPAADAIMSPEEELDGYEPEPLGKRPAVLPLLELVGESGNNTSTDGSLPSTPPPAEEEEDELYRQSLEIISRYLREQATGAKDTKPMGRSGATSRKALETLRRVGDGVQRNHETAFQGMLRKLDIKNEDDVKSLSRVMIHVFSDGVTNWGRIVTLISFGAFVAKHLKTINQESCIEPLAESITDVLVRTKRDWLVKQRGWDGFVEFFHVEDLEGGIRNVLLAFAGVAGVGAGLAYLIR

Cc1cc(C(=O)CSc2nnnn2-c2ccccc2)c(C)n1CC1CCCO1 (stereo unspecified)
EC50 [1]: 0.326 µM (active) | EC50 (H4): < 0.1 µM (active) | EC50 [2]: 0.353 µM (active) | IC50 [3]: 5.23 µM (active) | IC50 [4]: > 111 µM (not active) | EC50 [5]: 0.338 µM (active)

COc1ccc(-c2noc(COc3ccc(Cl)c(C)c3)n2)cc1
IC50 [6]: 5.14 µM (active) | IC50 [7]: 4.25 µM (active)

Cc1ccc(C(C)C)c(OCc2ccc(C(=O)N/N=C/c3ccc(O)cc3O)cc2)c1
EC50 [8]: 3 µM (active) | IC50 [9]: 1.03 µM (active) | EC50 [10]: 1.3 µM (active) | EC50 [11]: 8.36 µM (active) | IC50 [12]: 1.04 µM (active) | CC50 (Vero): 6.86 µM (active) | EC50 [13]: 2.17 µM (active) | IC50 [14]: 4.97 µM (active) | EC50 (Streptococcus): 2.15 µM (active) | IC50 (Exodeoxyribonuclease V): > 119 µM (inactive) | IC50 [15]: > 119 µM (inactive) | AC50 (INS1): 1.24 µM (active)

CC(C)C1Cc2c(C#N)c(N)sc(=S)c2CO1 (stereo unspecified)
IC50 (Ephrin type-A receptor 4): 3.31 µM (active)
